The target in assay [1] is T1, GST fusion human ERK2 protein (Homo sapiens, UniProt P28482).
T1 construct: purchased Carna Biosciences, Inc; host or cells: E. coli expression system
Kind of assay: ERK2 enzyme assay (2). Format: biochemical. The note with it: ERK2 enzyme assay (2); read-out: ERK2 enzyme inhibitory activity (2). In a few lines:
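GST-tagged human ERK2 expressed in E. coli (1.25 nmol/L) was preincubated with compound for 15 min at room temperature in pH 7.5 Hepes buffer with MgCl2, DTT and Brij35. Reaction with FL-Peptide 8 (final 4.25 μmol/L) and ATP (final 1 mmol/L) ran 120 min at 25 °C; EDTA stopped it, and phosphorylated peptide was quantified by mobility-shift separation to derive IC50.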

The target of a further assay is T2, human PI3Kα protein (Homo sapiens, UniProt P42336).
T2 construct: purchased Carna Biosciences, Inc; host or cells: baculovirus expression system
Put plainly: PI3Kα enzyme assay (ADP-Glo). The class given is biochemical. The note with it: read-out: PI3Kα enzyme inhibitory activity. In short, it runs like this: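 Biotinylated human PI3Kα (baculovirus-expressed, 4.5 nmol/L) pre-incubated 15 min with compound in Tris-HCl pH 7.5, MgCl2, BSA; reaction 60 min at 25° C with 50 μmol/L PIP2 and 100 μmol/L ATP final. ADP quantified by ADP-Glo luminescence; IC50 calculated.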

T1 sequence (P28482 whole entry, the tested form may be a part): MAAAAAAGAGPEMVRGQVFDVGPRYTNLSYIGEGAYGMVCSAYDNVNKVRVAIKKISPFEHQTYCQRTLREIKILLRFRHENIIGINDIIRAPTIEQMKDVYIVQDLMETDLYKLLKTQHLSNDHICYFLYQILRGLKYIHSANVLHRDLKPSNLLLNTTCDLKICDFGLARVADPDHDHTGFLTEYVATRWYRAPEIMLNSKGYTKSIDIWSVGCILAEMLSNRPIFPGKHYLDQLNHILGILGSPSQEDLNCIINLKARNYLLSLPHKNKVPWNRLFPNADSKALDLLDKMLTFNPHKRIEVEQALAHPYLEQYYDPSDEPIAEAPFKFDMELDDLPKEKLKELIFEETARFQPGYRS
T2 sequence (P42336 whole entry): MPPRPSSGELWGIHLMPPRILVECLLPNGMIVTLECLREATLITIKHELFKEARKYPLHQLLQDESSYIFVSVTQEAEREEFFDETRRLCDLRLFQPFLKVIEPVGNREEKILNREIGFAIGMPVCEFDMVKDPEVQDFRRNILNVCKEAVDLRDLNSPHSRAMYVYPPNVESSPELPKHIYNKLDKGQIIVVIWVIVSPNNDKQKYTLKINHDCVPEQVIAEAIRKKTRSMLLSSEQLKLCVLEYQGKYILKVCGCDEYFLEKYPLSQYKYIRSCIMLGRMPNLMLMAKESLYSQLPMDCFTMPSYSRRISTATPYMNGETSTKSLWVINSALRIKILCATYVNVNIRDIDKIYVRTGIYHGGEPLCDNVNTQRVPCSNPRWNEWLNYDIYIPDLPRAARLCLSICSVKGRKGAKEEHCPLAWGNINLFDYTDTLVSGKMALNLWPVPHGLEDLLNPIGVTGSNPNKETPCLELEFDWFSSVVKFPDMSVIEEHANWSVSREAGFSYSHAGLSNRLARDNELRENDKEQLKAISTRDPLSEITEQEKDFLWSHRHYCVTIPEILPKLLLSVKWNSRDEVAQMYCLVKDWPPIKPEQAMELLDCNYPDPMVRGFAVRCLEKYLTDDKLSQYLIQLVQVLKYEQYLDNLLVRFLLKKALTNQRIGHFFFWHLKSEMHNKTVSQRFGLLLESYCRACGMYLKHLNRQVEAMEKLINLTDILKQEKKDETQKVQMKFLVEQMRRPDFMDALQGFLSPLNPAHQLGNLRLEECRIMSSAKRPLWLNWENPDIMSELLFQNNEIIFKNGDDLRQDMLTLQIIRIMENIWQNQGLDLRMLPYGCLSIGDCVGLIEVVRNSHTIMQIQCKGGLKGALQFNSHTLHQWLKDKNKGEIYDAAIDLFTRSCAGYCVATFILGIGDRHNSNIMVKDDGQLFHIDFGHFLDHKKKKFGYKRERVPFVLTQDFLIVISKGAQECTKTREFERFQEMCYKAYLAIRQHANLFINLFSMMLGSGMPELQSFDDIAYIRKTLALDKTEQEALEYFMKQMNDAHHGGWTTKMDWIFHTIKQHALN
T2 sequence (P27986 whole entry partner): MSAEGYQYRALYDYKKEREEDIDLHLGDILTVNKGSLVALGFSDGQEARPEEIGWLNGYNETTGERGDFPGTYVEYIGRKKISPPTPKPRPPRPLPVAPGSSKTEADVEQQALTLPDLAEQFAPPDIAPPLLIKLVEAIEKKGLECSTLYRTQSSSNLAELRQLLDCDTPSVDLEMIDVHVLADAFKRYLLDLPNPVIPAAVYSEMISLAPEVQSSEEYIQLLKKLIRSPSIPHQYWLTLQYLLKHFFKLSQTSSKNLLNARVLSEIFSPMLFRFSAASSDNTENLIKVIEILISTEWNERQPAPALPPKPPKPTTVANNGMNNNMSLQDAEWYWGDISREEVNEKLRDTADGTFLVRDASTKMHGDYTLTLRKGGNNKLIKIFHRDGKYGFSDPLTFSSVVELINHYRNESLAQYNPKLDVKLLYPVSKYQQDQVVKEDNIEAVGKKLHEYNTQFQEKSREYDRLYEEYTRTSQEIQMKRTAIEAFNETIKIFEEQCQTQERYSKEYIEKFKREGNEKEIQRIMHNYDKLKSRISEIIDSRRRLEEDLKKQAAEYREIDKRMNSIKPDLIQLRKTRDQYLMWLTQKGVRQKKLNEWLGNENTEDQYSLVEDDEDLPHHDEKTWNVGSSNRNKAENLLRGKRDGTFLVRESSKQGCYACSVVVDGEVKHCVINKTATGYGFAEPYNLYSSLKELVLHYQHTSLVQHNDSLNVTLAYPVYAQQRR

Turning to `CC(C)c1cnnc(Nc2ccc3ncc(-c4cnn(CCOC5CN(Cc6ccccc6)C5)c4)cc3n2)c1` [Example 0743], the IC50 (in assay [1]; at human PI3Kα protein) was below 1000 nM each time.

As to `COCCOC(CN1CCOCC1)Cn1cc(-c2cnc3ccc(Nc4cc(C(C)C)cnn4)nc3c2)cn1` (centres unmarked) [Example 0744], the IC50 (in assay [1]; at human PI3Kα protein) was below 1000 nM in each case.

With `CC(C)c1cnnc(Nc2ccc3ncc(-c4cnn(CC(CN5CCOCC5)OCC5CC5)c4)cc3n2)c1` (centres unmarked) [Example 0745], the IC50 (in assay [1]; at human PI3Kα protein) was below 1000 nM each time.

As for `CCN1CC(OCCn2cc(-c3cnc4ccc(Nc5cc(C(C)C)cnn5)nc4c3)cn2)C1` [Example 0746, 7-(1-(2-((l-Ethylazetidin-3-yl)oxy)ethyl)-1H-pyrazol-4-yl)-N-(5-isopropylpyridazin-3-yl)-1,5-naphthyridine-2-amine], the IC50 (in assay [1]; on human PI3Kα protein) was below 1000 nM throughout.

In the case of `CC(C)c1cnnc(Nc2ccc3ncc(-c4cnn(CCOC5CN(CC(F)F)C5)c4)cc3n2)c1` [Example 0747, 7-(1-(2-((1-(2,2-difluoroethyl)azetidin-3-yl)oxy)ethyl)-1H-pyrazol-4-yl)-N-(5-isopropylpyridazin-3-yl)-1,5-naphthyridine-2-amine], the IC50 (in assay [1]; on human PI3Kα protein) was below 1000 nM in each case.

For the compound `Cc1cc(-c2nn(C)cc2-c2cnc3ccc(Nc4cc(C(C)C)cnn4)nc3c2)cc(C)n1` [Example 0748, 7-(3-(2,6-Dimethylpyridin-4-yl)-1-methyl-1H-pyrazol-4-yl)-N-(5-isopropylpyridazin-3-yl)-1,5-naphthyridine-2-amine], the IC50 (in assay [1]; on human PI3Kα protein) was below 1000 nM each time.

Turning to `CC(C)c1cnnc(Nc2ccc3ncc(-c4cn(C)nc4-c4ccnc(N5CCOCC5)c4)cc3n2)c1` [Example 0749, N-(5-isopropylpyridazin-3-yl)-7-(1-methyl-3-(2-morpholinopyridin-4-yl)-1H-pyrazol-4-yl)-1,5-naphthyridine-2-amine], the IC50 (in assay [1]; at human PI3Kα protein) was below 1000 nM each time.

For the compound `COCCOc1cc(-c2nn(C)cc2-c2cnc3ccc(Nc4cc(C(C)C)cnn4)nc3c2)ccn1` [Example 0750, N-(5-isopropylpyridazin-3-yl)-7-(3-(2-(2-methoxyethoxyl)pyridin-4-yl)-1-methyl-1H-pyrazol-4-yl)-1,5-naphthyridine-2-amine], the IC50 (in assay [1]; on human PI3Kα protein) was below 1000 nM throughout.

In the case of `CC(C)c1cnnc(Nc2ccc3ncc(-c4cn(C)nc4-c4ccnc(OCCN(C)C)c4)cc3n2)c1` [Example 0751], the IC50 (in assay [1]; at human PI3Kα protein) was below 1000 nM each time.

As for `CC(C)c1cnnc(Nc2ccc3ncc(-c4cn(C)nc4-c4ccnc(N)c4)cc3n2)c1` [Example 0752, 7-(3-(2-aminopyridin-4-yl)-1-methyl-1H-pyrazol-4-yl)-N-(5-isopropylpyridazin-3-yl)-1,5-naphthyridine-2-amine], the IC50 (in assay [1]; at human PI3Kα protein) was below 1000 nM in each case.

With `CC(=O)N1CC(OCCn2cc(-c3cnc4ccc(Nc5cc(C(C)C)cnn5)nc4c3)cn2)C1` [Example 0754, 1-(3-(2-(4-(6-((5-isopropylpyridazin-3-yl)amino)-1,5-naphthyridin-3-yl)-1H-pyrazol-1-yl)ethoxy)azetidin-1-yl)ethanone], the IC50 (in assay [1]; on human PI3Kα protein) was below 1000 nM in each case.

As for `CC(C)c1cnnc(Nc2ccc3ncc(-c4cnn(CCOC5CN(S(C)(=O)=O)C5)c4)cc3n2)c1` [Example 0755, N-(5-isopropylpyridazin-3-yl)-7-(1-(2-((1-(methylsulfonyl)azetidin-3-yl)oxy)ethyl)-1H-pyrazol-4-yl)-1,5-naphthyridine-2-amine], the IC50 (in assay [1]; on human PI3Kα protein) was below 1000 nM throughout.

For `CC(C)c1cnnc(Nc2ccc3ncc(-c4ccnn4C)cc3n2)c1` [Example 0758], the IC50 in assay [1] is below 1000 nM; on human PI3Kα protein, 1000 to 10000 nM.

For `Cn1cc(-c2cnc3ccc(Nc4cc(C5CCOCC5)cnn4)nc3c2)cn1` [Example 0759], the IC50 (in assay [1]; on human PI3Kα protein) was below 1000 nM each time.

With `Cc1nn(C)cc1-c1cnc2ccc(Nc3cc(C4CCOCC4)cnn3)nc2c1` [Example 0760, 7-(1,3-Dimethyl-1H-pyrazol-4-yl)-N-(5-(tetrahydro-2H-pyran-4-yl)pyridazin-3-yl)-1,5-naphthyridine-2-amine], the IC50 (in assay [1]; at human PI3Kα protein) was below 1000 nM in each case.

Consider `CC(C)c1cnnc(Nc2ccc3ncc(N4CCOC[C@H]4C)cc3n2)c1` [Example 0762, (R)-N-(5-isopropylpyridazin-3-yl)-7-(3-methylmorpholino)-1,5-naphthyridine-2-amine], for which the IC50 (in assay [1]; at human PI3Kα protein) was below 1000 nM each time.

Regarding `CC(C)c1cnnc(Nc2ccc3ncc(N4CCOC[C@@H]4C)cc3n2)c1` [Example 0764], the IC50 (in assay [1]; at human PI3Kα protein) was below 1000 nM throughout.

For the compound `CC(C)c1cnnc(Nc2ccc3ncc(-c4cc(N)ncn4)cc3n2)c1` [Example 0765], the IC50 (in assay [1]; at human PI3Kα protein) was below 1000 nM throughout.

With `CC(C)c1cnnc(Nc2ccc3ncc(-c4ccnc(N)n4)cc3n2)c1` [Example 0766], the IC50 (in assay [1]; on human PI3Kα protein) was below 1000 nM throughout.

With `Cc1ccc(-c2nn(C)cc2-c2cnc3ccc(Nc4cc(C(C)C)cnn4)nc3c2)cc1` [Example 0767, N-(5-isopropylpyridazin-3-yl)-7-(1-methyl-3-(4-methylphenyl)-1H-pyrazol-4-yl)-1,5-naphthyridine-2-amine], the IC50 (in assay [1]; on human PI3Kα protein) was below 1000 nM in each case.

In the case of `CC(C)c1cnnc(Nc2ccc3ncc(-c4cn(C)nc4-c4ccc(CN(C)C)cc4)cc3n2)c1` [Example 0768], the values for the IC50 (in assay [1]; on human PI3Kα protein) were 1000 to 10000 nM and below 1000 nM, respectively.

As to `CCC(CC)c1cnnc(Nc2ccc3ncc(-c4cn(C)nc4C)cc3n2)c1` [Example 0769], the IC50 (in assay [1]; at human PI3Kα protein) was below 1000 nM in each case.

Regarding `CCC(CC)c1cnnc(Nc2ccc3ncc(-c4cn(C)nc4-c4ccncc4)cc3n2)c1` [Example 0770], the IC50 (in assay [1]; on human PI3Kα protein) was below 1000 nM throughout.

`CCn1cc(-c2cnc3ccc(Nc4cc(C(C)C)cnn4)nc3c2)c(-c2ccncc2)n1` [Example 0771]: the IC50 (in assay [1]; at human PI3Kα protein) was below 1000 nM each time.

With `CC(C)c1cnnc(Nc2ccc3ncc(-c4cn(C)nc4C4CCOCC4)cc3n2)c1` [Example 0772], the IC50 (in assay [1]; at human PI3Kα protein) was below 1000 nM each time.

For the compound `CC(C)c1cnnc(Nc2ccc3ncc(-c4cn(C)nc4-c4ccc(OCCN(C)C)cc4)cc3n2)c1` [Example 0774], the IC50 (in assay [1]; at human PI3Kα protein) was below 1000 nM each time.

For the compound `CC(C)c1cnnc(Nc2ccc3ncc(-c4cn(C)nc4-c4ccc(OCC(=O)N(C)C)cc4)cc3n2)c1` [Example 0777, 2-(4-(4-(6-((5-Isopropylpyridazin-3-yl)amino)-1,5-naphthyridin-3-yl)-1-methyl-1H-pyrazol-3-yl)phenoxy)-N,N-dimethylacetamide], the IC50 (in assay [1]; on human PI3Kα protein) was below 1000 nM throughout.

In the case of `CC(C)c1cnnc(Nc2ccc3ncc(-c4cn(C)nc4-c4ccc(OCCN5CCCCC5)cc4)cc3n2)c1` [Example 0778], the IC50 (in assay [1]; on human PI3Kα protein) was below 1000 nM in each case.

For the origin of these results see patent US9783536B2, “Nitrogen-containing heterocyclic compound or salt thereof” (FUJIFILM Corporation, priority 2013, dated 2017).
